Laboratory results from ChEMBL document CHEMBL1148837, “Development of new pyrrolopyrimidine-based inhibitors of Janus kinase 3 (JAK3)” (Bioorg Med Chem Lett, 2007).

Legend:
[1] = test system: TF-1; assay: cells; format: functional, cell-based; settings: Homo sapiens
Description: Inhibition of IL4-induced TF1 cell proliferation

[2] = test system: TF-1; assay: cells; format: functional, cell-based; settings: Homo sapiens; remark: listed apart in the source
Description: Inhibition of IL3-induced TF1 cell proliferation

IC50 [1] [nM]	IC50 [2] [nM]	SMILES
450	740	CONC(=O)c1cc2c(N[C@@H](C)c3ccccc3)nc(-n3cnc4ccncc43)nc2n1C
490	2200	COc1ccc(Cl)c(Nc2nc(-n3cnc4ccncc43)nc3c2cc(C(=O)N2CCN(C)CC2)n3C)c1
460	1950	C[C@H](Nc1nc(-n2cnc3ccncc32)nc2c1cc(C(=O)NCCN(C)C)n2C)c1ccccc1
80	90	C[C@H](Nc1nc(-n2cnc3ccncc32)nc2c1cc(C(=O)N1CCN(C)CC1)n2C)c1ccccc1
1160	4790	COC[C@H](C)Nc1nc(-n2cnc3ccncc32)nc2c1cc(C(=O)N1CCN(C)CC1)n2C
670	1400	C[C@H](Nc1nc(-n2cnc3ccncc32)nc2c1cc(C(=O)N1CCOCC1)n2C)c1ccccc1
910	2790	C[C@H](Nc1nc(-n2cnc3ccncc32)nc2c1cc(C(=O)NCCCN1CCOCC1)n2C)c1ccccc1
